We go through four compounds from PMC12455390, “Three Is Better than One: A Multimetal Complex that Triggers Immunogenic Cell Death” (Angewandte Chemie (International Ed. in English), 2025).

Read-outs that look alike come from different tables or passages of the source.

For one series, the system named is A375 (melanoma). The series is described as follows: Antiproliferative MTT assay, A375. As to conditions: A375, 72 h incubation. It is filed as cell-based, human. How it is done:
(§1) We examined the antiproliferative activity of the heterometallic complexes 3–5 and compared them against their monometallic constituent components, as well as a physical 1:1:1 mixture of 1 + Oxa + 2 after 72 h incubation across a panel of five cancer cell lines: A2780 (ovarian carcinoma), A2780cis (ovarian carcinoma resistant to cisplatin, also referred to as A2780CP), CT26 WT (murine colorectal carcinoma), A375 (melanoma), and PC9 (non‐small cell lung cancer).
(§2) A375 melanoma cells (5000 cells/well), PC9 […] cells (5000 cells/well), CT26 WT murine colon carcinoma cells (5000 cells/well), A2780 ovarian carcinoma cells (5000 cells/well), and A2780cis cisplatin-resistant ovarian carcinoma cells (7000 cells/well), were seeded in flat-bottom 96-well plates in their respective cell culture media (100 µL) and incubated at 37°C in a 5% CO2 environment for 24 h. After that, the media were replaced with the fresh media. Stock solutions of the compounds in DMSO or in cell culture medium (for Oxa) were freshly prepared and diluted with the respective cell culture medium to graded concentrations (final concentration of DMSOmax: 0.5% v/v). After 72 h of exposure, the media were removed and 100 µL of 0.5 mg/mL 3-(4,5-dimethylthiazol-2-yl)-2,5-diphenyl tetrazolium bromide (MTT) in DMEM or RPMI were added and the plate in question further incubated for an additional 1 h. The media containing the MTT solution was removed and the resulting formazan crystals were dissolved in 100 µL DMSO. The absorbance of the solution in each well was read at 570 nm using a BioTek Cytation3 plate reader. The IC50 value, which is the drug concentration needed for 50% reduction in survival, based on the survival curve, was calculated by fitting nonlinear curves in GraphPad Prism 5 Ver 5.03, using a normalized response variable slope model constructed by plotting cell viability (%) vs log of the concentration of the complex in question in nM. The results are presented as the mean values of three independent experiments.
(In general: Tetrazolium dyes change colour on reduction, which living cells bring about.)

Series [1] deals with CT26 WT (murine colorectal carcinoma). The series is described as follows: Antiproliferative MTT assay, CT26 WT. The settings on record: CT 26 WT, 72 h incubation. Type of series: cell-based. The protocol:
as §1, §2

The target of another series is T1, human TrxR2 (Homo sapiens, UniProt Q9NNW7).
T1 construct: purchased SeLENOZYME
The series is described as follows: Isolated TrxR2 inhibition (DTNB assay). Type of series: biochemical. As to conditions: 75 min incubation at 37 °C. The protocol: (§3) A number of gold and ruthenium complexes are known to inhibit members of the TrxR enzyme family.^[ [27] ^] […] We thus sought to evaluate the activity of our gold‐ and ruthenium‐containing complexes against TrxR1 (found in the cytoplasm) and TrxR2 (found in the mitochondria).
(§4) Human TrxR1 and TrxR2 were purchased from SeLENOZYME and inhibition studies were carried out by means of a DTNB assay in 96-well culture plates. Enzymes were diluted to achieve a concentration of 3.58 U mL^−1. The compounds subject to testing were freshly dissolved in DMF. 10 μL aliquots of the enzyme solution and 10 μL of solutions of the compounds at graded concentrations or 10 μL of 1% DMF in PBS (positive control) were added and incubated for 75 min at 37 °C. A second control consisted of 10 µL of the highest concentration of each compound with 10 µL of PBS. After the chosen incubation time, 10 µL of NADPH (10 mM), 160 µL TE buffer (50 mM Tris-HCl, 2 mM EDTA, pH 7.5) and 10 µL ethanolic DTNB (50 mM) were added producing a total reaction volume of 200 µL. After proper mixing, the formation of 5-TNB was monitored with a microplate reader at 405 nm. This was done 10 times at 30 second intervals over the course of about 5 min. A TNB standard curve (0-2 mM in 200 µL TE buffer) was used to calculate the exact DTNB consumed in the reaction with linear region slopes being calculated by plotting A405 vs time (min). The IC50 values representing the concentration of compound serving to decrease the enzymatic activity of the untreated control by 50% were calculated and are given as the mean and standard error of three repeated experiments. The combination index (CI) was calculated using the Chou-Talalay method^6

Series [2] relates to A2780 (ovarian carcinoma). The series is described as follows: Antiproliferative MTT assay, A2780. It is filed as cell-based, human. As to conditions: A2780, 72 h incubation. The protocol:
as §1, §2

The next series relates to HCT-116 cells. Kind of series: Total cellular metal accumulation (ICP-MS). As to conditions: 1 µM, 24 h. Type of series: cell-based. How it is done: It is important to note the TrxR assay was performed using isolated enzymes. […] Recognizing this, we incubated HCT‐116 cells with 1 µM of complexes 1–5 for 24 h and quantified the total metal content via ICP‐MS (Figure 4a).
1 x 10^6 HCT-116 cells were seeded in a 6-well plate (2 mL RPMI-1640). After incubating overnight, the medium was replaced, and the cells were treated with the test compounds (1 µM) for 24 h. The resulting cell monolayers were washed twice with cold PBS, harvested and counted in PBS for a total volume of 400 µL. Samples were divided, and each was mineralized with 1 mL aqua regia and evaporated to dryness on a 110 °C hot plate overnight. Later, 1 mL of 2% HCl + 1% thiourea was added to each vial. Samples were quantified via ICP-MS. Metal accumulation levels were determined using the relative isotopic prevalence of ^195Pt, ^101Ru, and ^197Au.

Series [3] concerns A2780cis (ovarian carcinoma resistant to cisplatin). Kind of series: Antiproliferative MTT assay, A2780cis. It is filed as cell-based, human. The settings on record: A2780 CisR, 72 h incubation. The protocol:
as §1, §2

Series [4] deals with reducing enzymes, such as lipoamide dehydrogenase, glutathione reductase, and TrxR. Type of series: cell-based. The protocol:
We thus explored several targets in addition to cellular and organelle uptake after 24 h incubation. A lipoate‐to‐dihydrolipoate reduction assay in HCT‐116 cells was used to evaluate the ability of the complexes to inhibit reducing enzymes, such as lipoamide dehydrogenase, glutathione reductase, and TrxR.^[ [25] ^]
In short, HCT-116 cells were harvested and seeded at a density of 10,000 cells/well in 96-well culture plates. Following an overnight incubation at 37°C under a 5% CO2 atmosphere, the medium was replaced, and the cells incubated with 1 µM of each complex for additional 24 hr. Thereafter, the media were removed from each well, which were then washed with 200 μL of HBSS solution. Finally, 100 µL of 5 mM lipoate and 1 mM of DTNB solutions were added to each well. The absorbance of each well at 405 nm was recorded immediately and once every 20 min for one hour using a microplate reader. Plates were covered with aluminum foil between readings.

The target in a further series is T2, human TrxR1 (Homo sapiens, UniProt Q16881).
T2 construct: purchased SeLENOZYME
T2 sequence (Q16881 1-499 isoform Q16881-5): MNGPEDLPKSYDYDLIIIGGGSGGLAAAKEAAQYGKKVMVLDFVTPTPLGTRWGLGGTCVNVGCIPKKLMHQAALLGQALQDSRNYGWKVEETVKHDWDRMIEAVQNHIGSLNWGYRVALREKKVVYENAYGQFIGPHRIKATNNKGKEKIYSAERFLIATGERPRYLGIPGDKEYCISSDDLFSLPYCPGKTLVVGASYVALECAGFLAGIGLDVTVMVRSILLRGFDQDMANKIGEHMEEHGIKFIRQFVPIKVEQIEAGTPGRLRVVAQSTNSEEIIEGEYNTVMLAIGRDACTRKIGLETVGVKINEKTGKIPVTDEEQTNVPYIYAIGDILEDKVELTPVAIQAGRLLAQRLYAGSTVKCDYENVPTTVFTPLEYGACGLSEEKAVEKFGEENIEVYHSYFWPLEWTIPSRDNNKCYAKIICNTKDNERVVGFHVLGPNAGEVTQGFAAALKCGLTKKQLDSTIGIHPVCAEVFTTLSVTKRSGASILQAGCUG
Kind of series: Isolated TrxR1 inhibition (DTNB assay). It is filed as biochemical. The settings on record: 75 min incubation at 37 °C. The protocol:
as §3, §4

Series [5] has as its system PC9 (non-small cell lung cancer). The series is described as follows: Antiproliferative MTT assay, PC9. It is filed as cell-based, human. The settings on record: PC9, 72 h incubation. The protocol:
as §1, §2

A further series concerns CT26 cells. The series is described as follows: Extracellular HMGB1 release (ELISA). The settings on record: IC50 concentrations, 24 h. Type of series: cell-based, murine. How it is done:
Oxa alone produced a modest effect, consistent with its known ICD profile.^[ [5] ^]
1 x 10^6 CT-26 cells were seeded in a 6-well plate (2 mL RPMI-1640). […] The HMGB1 release of the supernatant was quantified using HMGB1 Detection Kit ELISA (Chondrex, Catalog 6010) according to the manufacturer’s instructions.
A general note: ELISA stands for enzyme-linked immunosorbent assay.

T1 sequence (Q9NNW7 37-524): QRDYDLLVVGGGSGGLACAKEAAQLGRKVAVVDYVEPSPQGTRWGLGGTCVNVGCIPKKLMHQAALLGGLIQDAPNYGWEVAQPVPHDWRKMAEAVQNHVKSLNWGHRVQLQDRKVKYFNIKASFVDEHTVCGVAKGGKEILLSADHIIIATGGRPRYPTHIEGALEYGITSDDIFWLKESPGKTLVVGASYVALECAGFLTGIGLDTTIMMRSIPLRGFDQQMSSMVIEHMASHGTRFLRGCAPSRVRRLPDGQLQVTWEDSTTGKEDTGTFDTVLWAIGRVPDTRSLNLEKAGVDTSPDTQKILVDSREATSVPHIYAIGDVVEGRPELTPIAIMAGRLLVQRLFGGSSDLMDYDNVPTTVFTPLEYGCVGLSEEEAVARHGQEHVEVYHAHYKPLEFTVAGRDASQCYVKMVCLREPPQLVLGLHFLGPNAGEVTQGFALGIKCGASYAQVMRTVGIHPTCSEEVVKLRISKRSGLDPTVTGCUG

By IC50 is commonly meant the midpoint of a concentration-inhibition curve. Turning to `Cc1ccc(C(C)C)cc1.O=C(O)c1ccc(NC(=S)c2ccccn2)cc1.[Cl-].[Cl][Ru+]` [Complex 1, [Chlorido(η6-p-cymene)(N-(4-benzoic acid)-2-pyridinecarbothioamide)ruthenium(II)] chloride], the IC50 was more than 40 µM with A375 (melanoma); more than 40 µM in [1]; 4.36 ± 0.41 µM on human TrxR2; 15.7 ± 4.3 µM in [2]; more than 40 µM in [3]; 3.44 ± 0.32 µM at human TrxR1. Besides, the IC50 in series [5] was more than 40 µM. For the same compound, the “total cellular metal uptake” value in the series on HCT-116 cells is recorded as “low accumulation of ruthenium”. For the same compound, in [4], the “dihydrolipoate production relative to control” value was “activity similar to untreated cells (control)”.

As for `CC(=O)OC[C@H]1O[C@@H]([S-])[C@H](OC(C)=O)[C@@H](OC(C)=O)[C@@H]1OC(C)=O.CCP(CC)CC.[Au+]` [Auranofin, reference compound], the IC50 at human TrxR2 was found to be 0.22 ± 0.04 µM; on human TrxR1, 0.06 ± 0.02 µM. For the same compound, in series [4] (HCT-116 cells, 1 µM, 24 h), the “dihydrolipoate production relative to control” value is 55%.

Consider `Cc1cc(C)c(-n2ccn(CCOC(=O)NCCN)[c]2=[Au-3]=[c]2n(-c3c(C(C)C)cccc3C(C)C)c3c(n2-c2c(C(C)C)cccc2C(C)C)C(=O)c2ccccc2C3=O)c(C)c1.O=C([O-])C(F)(F)F` [Complex 2, (1-(2-(((2-Aminoethyl)carbamoyl)oxy)ethyl)-3-mesityl-1,3-dihydro-2H-2λ3-imidazol-2-yl)(1,3-bis(2,6-diisopropylphenyl)-4,9-dioxo-1,3,4,9-tetrahydro-2H-2λ3-naphtho[2,3-d]imidazol-2-yl)gold (I) TFA salt], for which the 50% inhibitory concentration (IC50) came out at 2.48 ± 0.35 µM in the series on A375 (melanoma); 14.9 ± 0.4 µM in series [1]; 1.27 ± 0.21 µM at human TrxR2; 0.34 ± 0.08 µM in [2]; 0.56 ± 0.09 µM in series [3]; 1.62 ± 0.13 µM at human TrxR1. The compound also returned a concentration for half-maximal inhibition (IC50) in [5] of 0.49 ± 0.13 µM. Besides, the “dihydrolipoate production relative to control” value in series [4] (HCT-116 cells, 1 µM, 24 h) is given as 72%.

Consider `O=C1[O][Pt]2([NH][C@@H]3CCCC[C@H]3[NH]2)[O]C1=O` [Oxa, oxaliplatin, reference compound], for which the concentration for half-maximal inhibition (IC50) in the series with A375 (melanoma) amounted to 3.16 ± 0.49 µM; in series [1] it was 20 ± 1.4 µM; on human TrxR2, 28.2 ± 2.9 µM; in series [2] it was 0.29 ± 0.03 µM; in [3], 1.01 ± 0.22 µM; on human TrxR1, 25.6 ± 3.7 µM. The compound further had an IC50 in series [5] of 8.2 ± 1 µM. In series [4] (HCT-116 cells, 1 µM, 24 h), the “dihydrolipoate production relative to control” value is “activity similar to untreated cells (control)”. In the series with CT26 cells, the “Extracellular HMGB1 release” value is given as “modest effect”.
